Several values for one entry are separate records, joined by “and”; a condition that tells them apart may be missing. Equal values may be shown once.
Experiments:
[1] = tested on: P-gp; details: CEM parental and CEMVBL cells; cited from earlier work
[2] = in vitro; details: human, Mean
Experimental: (§1) The monolayers used were of between passage 20 and 65 after 15 days of growth. Each experiment was performed in duplicate using two six well-transwell culture plates. The cells were trypsinized as described earlier, and after centrifugation the pellet re-suspended in fresh DMEM (+15%), and the cells counted using a cell counter. A volume of DMEM was added enough to give a cell count of 2 × 10^6 cells per ml, and cells were seeded on the transwell culture plates at a density of 2 × 10^4 cells/cm^2 (~ 100,000 cells per well, since insert membrane growth area = 4.67 cm^2). The plates were then incubated at 37°C and 10% CO2 in a humidified chamber and the media changed every 2-3 days, by aspirating using a suction pump and replacing with an equal volume of DMEM. Transport experiments were conducted 15 to 20 days after seeding. The TEER across the cell monolayers was monitored using a Millicell-ERS in order to assess cell monolayer integrity and the monolayers considered appropriate for the experiment when the TEER values were typically above 500 cm^2 [49, 70].
(§2) Prior to transport studies, each monolayer was washed and equilibrated with the transport medium (DMEM without FBS). The medium was removed from all AP and BL compartments of the transwells and replaced with 2 ml of the transport medium (DMEM alone), to both compartments and equilibrated for 1 h (37°C, 10% CO2 incubator), after which the TEER was re-assessed and labeled. The medium was then removed from both compartments and replaced with an equal volume of pre-warmed medium containing the compound of interest at the appropriate concentration. For the AP → BL transport, 2 ml of medium containing the desired drug was placed in the AP chamber and 2 ml of the medium alone in the BL chamber, whereas 2 ml of medium containing the drug was placed in the BL and 2 ml of medium on the AP chamber for the BL → AP transport [71]. The effect of the second drug was then assessed by adding the medium containing the original drug and the drug under study to the AP side for AP → BL transport with the medium containing the original drug alone in the BL chamber, and vice-versa for the BL → AP transport. Transport in each direction was done in triplicate. The transwell plates were then incubated (37°C, 10% CO2 incubator), and 100μl of the samples from the AP and BL compartments were taken at 60, 120, 180 and 240 min and quantified either by HPLC method described earlier [45], or by the use of a liquid scintillating counter depending on the drug under study. The HPLC method involved liquid - liquid extraction followed by ultra-high performance liquid chromatography using a Hypurity C18 column and ultraviolet detection set at a wavelength of 215 nm. The mobile phase consisted of ammonium formate, acetonitrile and methanol (57:38:5 v/v). Separation was facilitated via isocratic elution at a flow rate of 1.5 ml/min. For HPLC assays, the concentration used for each drug was 20μg/ml. The concentrations that offered the best detection were selected for radiolabeled assay. […] The integrity of the CCM during the experiment was monitored by measuring the TEER at the beginning (0 min) and the end of the experiment (240min).
(§3) The results were expressed as apparent permeability coefficient (Papp, unit: cms^-1), the amount of compound transported per second. Papp values were calculated for both AP to BL (PappAtoB), and BL to AP (PappBtoA) movement of the compound. Papp was calculated using the following equation [52, 72]: • Papp (cm/s) = (dQ/dt) x (1/(ACO) • dQ/dt = Steady-state flux (dpm s^-1 or μmol s^-1) • A = Surface area of the filter (cm^2) • CO = Initial concentration in the donor chamber (dpm litre ^-1 or μM)
(§4) The quotient of secretory permeability and absorptive permeability (PappBL-AP/PappAP-BL) constitutes the efflux ratio, while the reverse (PappAP-BL/PappBL-AP) is the uptake ratio [71].

[3] = tested on: Caco-2 cell monolayers; test: Bidirectional (AP→BL, BL→AP) drug transport across Caco-2 cell monolayers in transwells: cumulative transport, Papp, efflux ratio; HPLC or radiolabeled assay; details: for Basal to apical transport (cumulative, receiver): individual samples 1-3; for PappAB / PappBA: individual samples; for Apical to basal transport / Basal to apical transport: samples 1-3
Experimental: as §1, §2, §3, §4

[4] = PZQ alone (EFV experiment), 60 min
[5] = PZQ alone (EFV experiment), 120 min, mean
[6] = PZQ alone (EFV experiment), 120 min
[7] = PZQ alone (EFV experiment), 180 min, mean
[8] = PZQ alone (EFV experiment), 180 min
[9] = PZQ alone (EFV experiment), 240 min, mean
[10] = PZQ alone (EFV experiment), 240 min
[11] = PZQ alone (NVP experiment), 60 min, mean
[12] = PZQ alone (NVP experiment), 60 min
[13] = PZQ alone (NVP experiment), 120 min, mean
[14] = PZQ alone (NVP experiment), 120 min
[15] = PZQ alone (NVP experiment), 180 min, mean
[16] = PZQ alone (NVP experiment), 180 min
[17] = PZQ alone (NVP experiment), 240 min, mean
[18] = PZQ alone (NVP experiment), 240 min
[19] = PZQ alone (SQV experiment), 60 min, mean
[20] = PZQ alone (SQV experiment), 60 min
[21] = PZQ alone (SQV experiment), 120 min, mean
[22] = PZQ alone (SQV experiment), 120 min
[23] = PZQ alone (SQV experiment), 180 min, mean
[24] = PZQ alone (SQV experiment), 180 min
[25] = PZQ alone (SQV experiment), 240 min, mean
[26] = PZQ alone (SQV experiment), 240 min
[27] = PZQ alone (SQV experiment), after 60min
[28] = PZQ alone (SQV experiment), after 60min, mean
[29] = labelled drug is the interacting drug

Which “P-gp substrate / inhibitor status” value [1] does the source give for `O=C(C1CCCCC1)N1CC(=O)N2CCc3ccccc3C2C1` (centres unmarked) [PZQ, praziquantel] here?
The value was “neither a substrate nor an inhibitor of P-gp”.

And the Papp A→B at 7200 sec ([2]; Caco-2, PappAB)?
The Papp A→B at 7200 sec was 63.8 ×10⁻⁶ cm/s.

And the Papp A→B at 10800 sec ([2]; Caco-2, PappAB)?
Its Papp A→B at 10800 sec is 57.7 ×10⁻⁶ cm/s.

What about the Papp A→B at 14400 sec ([2]; Caco-2, PappAB) of the same compound?
The Papp A→B at 14400 sec was 53.9 ×10⁻⁶ cm/s.

And the Papp B→A at 7200 sec ([2]; Caco-2, PappBA)?
The Papp B→A at 7200 sec was 57.2 ×10⁻⁶ cm/s.

And the Papp B→A at 10800 sec ([2]; Caco-2, PappBA)?
Its Papp B→A at 10800 sec is 47.9 ×10⁻⁶ cm/s.

What about the Papp B→A at 14400 sec ([2]; Caco-2, PappBA) of the same compound?
Its Papp B→A at 14400 sec is 49.6 ×10⁻⁶ cm/s.

And the “Basal to apical transport (cumulative, receiver)” value ([3]; 60 min)?
Its value is 16.40 pmol and 16.26 pmol and 17.14 pmol.

And the “Apical to basal transport (cumulative, receiver), Mean” value ([3]; 60 min, mean n=3)?
The value was 15.06 pmol.

And the “Basal to apical transport (cumulative, receiver), Mean” value ([3]; 60 min, mean n=3)?
Its value is 16.60 pmol.

What about the PappAB ([3]; 3600 sec) of the same compound?
The PappAB was 89.9 ×10⁻⁶ cm/s and 62.5 ×10⁻⁶ cm/s and 76.8 ×10⁻⁶ cm/s.

What about the PappBA ([3]; 3600 sec) of the same compound?
The PappBA was 84.6 ×10⁻⁶ cm/s and 77.5 ×10⁻⁶ cm/s and 95.4 ×10⁻⁶ cm/s.

And the “PappAB Mean” value ([3]; 3600 sec, mean n=3)?
The value was 76.4 ×10⁻⁶ cm/s.

What about the “PappBA Mean” value ([3]; 3600 sec, mean n=3) of the same compound?
Its value is 85.8 ×10⁻⁶ cm/s.

What about the “Basal to apical transport (cumulative, receiver)” value ([3]; 120 min) of the same compound?
Its value is 20.68 pmol and 19.96 pmol and 21.78 pmol.

What about the “Apical to basal transport (cumulative, receiver), Mean” value ([3]; 120 min, mean n=3) of the same compound?
The value was 22.74 pmol.

What about the “Basal to apical transport (cumulative, receiver), Mean” value ([3]; 120 min, mean n=3) of the same compound?
The value was 20.81 pmol.

What about the PappAB ([3]; 7200 sec) of the same compound?
The PappAB was 65.5 ×10⁻⁶ cm/s and 65.7 ×10⁻⁶ cm/s and 60.2 ×10⁻⁶ cm/s.

What about the PappBA ([3]; 7200 sec) of the same compound?
Its PappBA is 56.2 ×10⁻⁶ cm/s and 57.9 ×10⁻⁶ cm/s and 57.5 ×10⁻⁶ cm/s.

What about the “Basal to apical transport (cumulative, receiver)” value ([3]; 180 min) of the same compound?
Its value is 26.18 pmol and 23.22 pmol.

And the “Apical to basal transport (cumulative, receiver), Mean” value ([3]; 180 min, mean n=3)?
The value was 27.30 pmol.

What about the “Basal to apical transport (cumulative, receiver), Mean” value ([3]; 180 min, mean n=3) of the same compound?
Its value is 23.94 pmol.

And the PappAB ([3]; 10800 sec)?
The PappAB was 58.3 ×10⁻⁶ cm/s and 51.6 ×10⁻⁶ cm/s and 63.2 ×10⁻⁶ cm/s.

What about the PappBA ([3]; 10800 sec) of the same compound?
Its PappBA is 56.6 ×10⁻⁶ cm/s and 41.1 ×10⁻⁶ cm/s and 46 ×10⁻⁶ cm/s.

And the “Basal to apical transport (cumulative, receiver)” value ([3]; 240 min)?
Its value is 26.24 pmol and 28.48 pmol and 32.82 pmol.

What about the “Apical to basal transport (cumulative, receiver), Mean” value ([3]; 240 min, mean n=3) of the same compound?
The value was 32.95 pmol.

What about the “Basal to apical transport (cumulative, receiver), Mean” value ([3]; 240 min, mean n=3) of the same compound?
Its value is 29.18 pmol.

And the PappAB ([3]; 14400 sec)?
Its PappAB is 54.4 ×10⁻⁶ cm/s and 52 ×10⁻⁶ cm/s and 55.5 ×10⁻⁶ cm/s.

And the PappBA ([3]; 14400 sec)?
Its PappBA is 50.1 ×10⁻⁶ cm/s and 43.3 ×10⁻⁶ cm/s and 55.4 ×10⁻⁶ cm/s.

And the “Basal to apical transport Mean” value ([3]; PZQ alone (EFV experiment), 60 min, mean)?
Its value is 26.40 pmol.

What about the “Apical to basal transport” value [3, 4] of the same compound?
Its value is 33.50 pmol and 22.28 pmol and 39.18 pmol.

And the “Basal to apical transport” value [3, 4]?
The value was 25.94 pmol and 27.98 pmol and 25.28 pmol.

What about the “Apical to basal transport Mean” value [3, 5] of the same compound?
The value was 37.71 pmol.

And the “Basal to apical transport Mean” value [3, 5]?
The value was 46.61 pmol.

What about the “Apical to basal transport” value [3, 6] of the same compound?
Its value is 45.74 pmol and 32.50 pmol and 34.88 pmol.

What about the “Basal to apical transport” value [3, 6] of the same compound?
The value was 49.34 pmol and 35.84 pmol and 54.66 pmol.

And the “Apical to basal transport Mean” value [3, 7]?
Its value is 54.47 pmol.

What about the “Basal to apical transport Mean” value [3, 7] of the same compound?
The value was 58.63 pmol.

And the “Apical to basal transport” value [3, 8]?
Its value is 46.84 pmol and 53.00 pmol and 63.58 pmol.

And the “Basal to apical transport” value [3, 8]?
The value was 53.14 pmol and 51.00 pmol and 71.74 pmol.

What about the “Apical to basal transport Mean” value [3, 9] of the same compound?
Its value is 71.45 pmol.

And the “Basal to apical transport Mean” value [3, 9]?
The value was 67.31 pmol.

What about the “Apical to basal transport” value [3, 10] of the same compound?
The value was 50.62 pmol and 68.96 pmol and 94.76 pmol.

And the “Basal to apical transport” value [3, 10]?
Its value is 74.78 pmol and 75.20 pmol.

What about the “Apical to basal transport Mean” value [3, 11] of the same compound?
Its value is 23.43 pmol.

And the “Basal to apical transport Mean” value [3, 11]?
Its value is 25.07 pmol.

What about the “Apical to basal transport” value [3, 12] of the same compound?
Its value is 22.50 pmol and 22.28 pmol and 25.50 pmol.

What about the “Basal to apical transport” value [3, 12] of the same compound?
Its value is 23.94 pmol and 25.98 pmol and 25.28 pmol.

And the “Apical to basal transport Mean” value [3, 13]?
The value was 39.93 pmol.

What about the “Basal to apical transport Mean” value [3, 13] of the same compound?
Its value is 49.95 pmol.

What about the “Apical to basal transport” value [3, 14] of the same compound?
The value was 34.88 pmol and 39.18 pmol and 45.74 pmol.

And the “Basal to apical transport” value [3, 14]?
Its value is 49.34 pmol and 45.84 pmol and 54.66 pmol.

What about the “Apical to basal transport Mean” value [3, 15] of the same compound?
Its value is 50.15 pmol.

What about the “Basal to apical transport Mean” value [3, 15] of the same compound?
Its value is 54.69 pmol.

What about the “Apical to basal transport” value [3, 16] of the same compound?
The value was 46.84 pmol and 53.00 pmol and 50.62 pmol.

What about the “Basal to apical transport” value [3, 16] of the same compound?
The value was 53.14 pmol and 59.00 pmol.

What about the “Apical to basal transport Mean” value [3, 17] of the same compound?
The value was 69.10 pmol.

What about the “Basal to apical transport Mean” value [3, 17] of the same compound?
The value was 73.24 pmol.

What about the “Apical to basal transport” value [3, 18] of the same compound?
The value was 63.58 pmol and 68.96 pmol and 74.76 pmol.

What about the “Basal to apical transport” value [3, 18] of the same compound?
Its value is 65.74 pmol and 78.78 pmol and 75.20 pmol.

And the “Apical to basal transport Mean” value [3, 19]?
The value was 15.06 pmol.

What about the “Basal to apical transport Mean” value [3, 19] of the same compound?
Its value is 16.60 pmol.

What about the “Apical to basal transport” value [3, 20] of the same compound?
Its value is 16.68 pmol and 13.02 pmol and 15.48 pmol.

What about the “Basal to apical transport” value [3, 20] of the same compound?
The value was 16.40 pmol and 16.26 pmol and 17.14 pmol.

What about the “Apical to basal transport Mean” value [3, 21] of the same compound?
The value was 22.74 pmol.

And the “Basal to apical transport Mean” value [3, 21]?
The value was 20.81 pmol.

And the “Apical to basal transport” value [3, 22]?
The value was 22.40 pmol and 22.80 pmol and 23.02 pmol.

What about the “Basal to apical transport” value [3, 22] of the same compound?
Its value is 19.96 pmol and 21.78 pmol and 20.68 pmol.

What about the “Apical to basal transport Mean” value [3, 23] of the same compound?
The value was 27.30 pmol.

And the “Basal to apical transport Mean” value [3, 23]?
The value was 23.94 pmol.

What about the “Apical to basal transport” value [3, 24] of the same compound?
The value was 28.02 pmol.

What about the “Basal to apical transport” value [3, 24] of the same compound?
Its value is 26.18 pmol and 23.22 pmol.

And the “Apical to basal transport Mean” value [3, 25]?
The value was 32.95 pmol.

What about the “Basal to apical transport Mean” value [3, 25] of the same compound?
The value was 29.18 pmol.

What about the “Apical to basal transport” value [3, 26] of the same compound?
The value was 30.94 pmol and 32.48 pmol and 35.44 pmol.

What about the “Basal to apical transport” value [3, 26] of the same compound?
Its value is 26.24 pmol and 28.48 pmol and 32.82 pmol.

And the PappAB [3, 27]?
Its PappAB is 8.99 ×10⁻⁶ cm/s and 6.25 ×10⁻⁶ cm/s and 7.68 ×10⁻⁶ cm/s.

What about the PappBA [3, 27] of the same compound?
The PappBA was 8.46 ×10⁻⁶ cm/s and 7.75 ×10⁻⁶ cm/s and 9.54 ×10⁻⁶ cm/s.

And the PappAB Mean [3, 28]?
Its PappAB Mean is 7.64 ×10⁻⁶ cm/s.

And the PappBA Mean [3, 28]?
The PappBA Mean was 8.58 ×10⁻⁶ cm/s.

What about the PappAB ([3]; PZQ alone, MOESM4) of the same compound?
Its PappAB is 89.9 ×10⁻⁶ cm/s and 62.5 ×10⁻⁶ cm/s and 76.8 ×10⁻⁶ cm/s.

And the PappBA ([3]; PZQ alone, MOESM4)?
The PappBA was 84.6 ×10⁻⁶ cm/s and 77.5 ×10⁻⁶ cm/s and 95.4 ×10⁻⁶ cm/s.

And the “ER Mean” value ([3]; PZQ alone, mean, MOESM4)?
The value was 1.14.

And the “PappAB Mean (x10^6)” value ([3]; PZQ alone, mean, MOESM4)?
The value was 7.64 x10^6 cm/s.

And the “Effect on the (efflux) transport of SQV” value [3, 29]?
Its value is “did not alter”.

What about the “Effect on the transport of ARVs” value [3, 29] of the same compound?
Its value is “did not appear to significantly influence”.
